Reference: ChEMBL document CHEMBL5154929, “Optimization of the Natural Product Calothrixin A to Discover Novel Dual Topoisomerase I and II Inhibitors with Improved Anticancer Activity” (J Med Chem, 2022)
The source made the active and inactive calls. The calls are words filed in the database; no cut-off is given here.

Assays:
A-375 [1] = test: Induction of cell cycle arrest in human A-375 cells assessed as accumulation of cells at S phase at 20 nM incubated for 24 hrs by PI based flow cytometric analysis (RVB = 26.73%); type: functional
A-375 [2] = test: Inhibition of colony formation in human A-375 cells at 20 to 40 nM incubated for 48 hrs by crystal violet staining method; type: functional, cell-based; conditions: dose 20-40 nM
MCF7 = test: Cytotoxicity against human MCF7 cells expressing high level of topoisomerase I/II measured after 72 hrs by MTT assay; type: functional, cell-based; conditions: MCF7, 72 h
[3] = target: DNA topoisomerase 2-alpha (Homo sapiens) (UniProt P11388); test: Poison activity at human topoisomerase II-alpha assessed as stabilization of enzyme-DNA cleavage complex by measuring nicked DNA formation at 100 uM after 60 mins by agarose gel electrophoresis method
DNA topoisomerase 2-alpha (Homo sapiens), sequence (P11388 whole entry): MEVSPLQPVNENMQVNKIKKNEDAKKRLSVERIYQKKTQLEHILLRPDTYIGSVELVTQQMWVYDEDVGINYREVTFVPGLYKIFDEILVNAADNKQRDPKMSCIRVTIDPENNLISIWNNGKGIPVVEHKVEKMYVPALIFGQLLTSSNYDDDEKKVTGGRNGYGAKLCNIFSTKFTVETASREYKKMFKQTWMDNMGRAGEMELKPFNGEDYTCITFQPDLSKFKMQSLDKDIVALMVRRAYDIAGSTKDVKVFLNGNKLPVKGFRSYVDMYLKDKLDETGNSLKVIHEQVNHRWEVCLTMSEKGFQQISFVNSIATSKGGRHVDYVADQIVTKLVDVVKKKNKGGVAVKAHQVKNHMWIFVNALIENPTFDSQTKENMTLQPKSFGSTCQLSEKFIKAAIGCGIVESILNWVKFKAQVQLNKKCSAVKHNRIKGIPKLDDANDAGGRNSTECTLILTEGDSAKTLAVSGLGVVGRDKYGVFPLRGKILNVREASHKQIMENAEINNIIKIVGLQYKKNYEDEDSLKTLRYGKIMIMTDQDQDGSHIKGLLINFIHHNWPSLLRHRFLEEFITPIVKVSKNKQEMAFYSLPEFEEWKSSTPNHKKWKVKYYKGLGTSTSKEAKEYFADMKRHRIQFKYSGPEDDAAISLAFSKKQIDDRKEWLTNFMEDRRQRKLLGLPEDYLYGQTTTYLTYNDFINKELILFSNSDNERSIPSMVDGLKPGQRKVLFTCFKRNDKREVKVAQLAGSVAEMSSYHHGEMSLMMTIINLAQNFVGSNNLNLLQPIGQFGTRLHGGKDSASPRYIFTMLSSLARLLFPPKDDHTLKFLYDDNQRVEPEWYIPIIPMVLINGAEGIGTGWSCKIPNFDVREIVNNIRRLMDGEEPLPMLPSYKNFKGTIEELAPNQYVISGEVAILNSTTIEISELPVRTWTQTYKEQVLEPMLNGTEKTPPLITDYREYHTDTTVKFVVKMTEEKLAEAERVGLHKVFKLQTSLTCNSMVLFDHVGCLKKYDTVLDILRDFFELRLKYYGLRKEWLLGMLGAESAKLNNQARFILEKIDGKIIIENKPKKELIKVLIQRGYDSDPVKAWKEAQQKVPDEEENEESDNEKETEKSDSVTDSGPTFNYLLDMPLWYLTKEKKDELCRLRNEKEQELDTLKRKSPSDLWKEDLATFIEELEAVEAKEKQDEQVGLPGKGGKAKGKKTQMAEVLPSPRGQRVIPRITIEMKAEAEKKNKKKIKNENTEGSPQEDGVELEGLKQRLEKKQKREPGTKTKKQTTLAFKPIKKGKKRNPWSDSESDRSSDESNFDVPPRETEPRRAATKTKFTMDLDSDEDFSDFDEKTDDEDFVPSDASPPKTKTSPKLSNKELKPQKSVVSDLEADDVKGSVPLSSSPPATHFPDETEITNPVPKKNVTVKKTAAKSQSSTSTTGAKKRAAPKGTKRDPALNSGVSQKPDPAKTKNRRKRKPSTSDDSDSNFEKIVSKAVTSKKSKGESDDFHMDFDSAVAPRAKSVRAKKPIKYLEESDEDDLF

[4] = In vivo acute toxicity in Balb/C mouse assessed as pathological damage in lung at 50 mg/kg, iv administered once per 2 days for 7 days measured 24 hrs after last dose by H and E staining method; type: organism-based; conditions: 168 h, time 7 day
A-375 [5] = test: In vivo induction of apoptosis in human A-375 cells xenografted in BALB/c nude mouse treated after 7 days of tumor implantation on right flank subcutaneously at 10 to 20 mg/kg, iv administered once per 2 days for 14 days by measuring TUNEL positive cells under a light microscope; type: functional, organism-based; conditions: dose 10-20 mg/kg, time 14.0 day
[6] = Microsomal stability in mouse liver microsomes assessed as half life measured at 2 ug/ml upto 60 mins in presence of NADPH generating system and UGT incubation system by phase II metabolic stability kit method; type: ADME, Microsome; conditions: dose 2 µg/ml
A-375 [7] = test: Induction of cell cycle arrest in human A-375 cells assessed as accumulation of cells at G2 phase at 20 nM incubated for 24 hrs by PI based flow cytometric analysis (RVB = 20.34%); type: functional
HCT-116 = test: Inhibition of colony formation in human HCT-116 cells at 20 to 40 nM incubated for 48 hrs by crystal violet staining method; type: functional, cell-based; conditions: dose 20-40 nM
[8] = In vivo acute toxicity in Balb/C mouse assessed as effect on body weight at 50 mg/kg, iv administered once per 2 days for 7 days measured every other day; type: organism-based; conditions: 168 h, time 7 day
[9] = Microsomal stability in mouse liver microsomes assessed as clearance measured at 2 ug/ml upto 60 mins in presence of NADPH generating system and UGT incubation system by phase II metabolic stability kit method; type: ADME, Microsome; conditions: dose 2 µg/ml, read-out: CLH

SMILES: O=C1c2c[n+]([O-])c3ccccc3c2C(=O)c2c1c1ccccc1n2Cc1cn([C@@H]2C[C@H](O)[C@@H](CO)O2)nn1
- Activity (A-375 [1]): 38.36%
- inhibition (A-375 [2]): Active
- IC50 (MCF7): 0.11 µM
- Activity [3]: Active
- Activity [4]: Non-Toxic
- Activity (A-375 [5]): Active
- half-life at 2 ug/ml [6]: 40 min
- Activity (A-375 [7]): 29.19%
- inhibition (HCT-116): Active
- Activity [8]: Non-Toxic
- microsomal CLint at 2 ug/ml [9]: 35 µL/min/mg
